Test results reported in paper PMC2192493 (The Journal of Experimental Medicine, 1996).

Tests used:
H-2Kd [1] = biological target: T1, H-2Kd (Mus musculus, UniProt P01902); test: Competitive inhibition of 125I-LLO; format: binding; details: for binding to H-2Kd (in words): peptide-binding inhibition experiments, Fig. 1
H-2Kd [2] = biological target: T1, H-2Kd; details: cited from earlier work
CMS1 = test: 4-h 51Cr release assay of vaccine-induced effectors, CMS1 targets; format: cell-based, mouse; details: separate experiment, data not shown
Meth A = test: 4-h 51Cr release assay of vaccine-induced effectors, Meth A targets; format: cell-based, mouse; details: 239CM-induced CTL; separate experiment, data not shown
[3] = cited from earlier work

T1 sequence (P01902 whole entry, looked up): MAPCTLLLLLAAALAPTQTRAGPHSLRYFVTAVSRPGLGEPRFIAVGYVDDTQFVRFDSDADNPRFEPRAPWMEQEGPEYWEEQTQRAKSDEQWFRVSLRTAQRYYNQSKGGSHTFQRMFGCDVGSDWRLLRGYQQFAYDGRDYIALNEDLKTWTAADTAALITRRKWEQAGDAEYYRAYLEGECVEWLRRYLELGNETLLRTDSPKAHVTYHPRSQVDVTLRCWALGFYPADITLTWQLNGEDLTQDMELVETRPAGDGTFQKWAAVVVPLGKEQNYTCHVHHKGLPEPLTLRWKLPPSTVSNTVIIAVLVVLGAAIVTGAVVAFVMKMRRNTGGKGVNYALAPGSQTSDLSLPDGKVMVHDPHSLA

For “234CW: wild-type peptide p53(232-240) (KYMCNSSCM; UniProt P02340 232-240, looked up, fragment)”, which “binding to H-2Kd (in words)” value (H-2Kd [1]) is on record?
Its value is “capable of binding to H-2Ka”.

With “GFKDGNEYI [LLO(Y2F), reference compound]” as the substance, how does the “relative binding to H-2Kd (in words)” value (H-2Kd [1]; compared with other peptides in the same assay) read?
Its value is “comparable to that of the parent peptide”.

Which “binding affinity to H-2Kd (in words)” value (H-2Kd [2]) does the source give for GYKDGNEYI [LLO] here?
The value was “high affinity”.

For KYMCNSSFM [239CM], which “binding to H-2Kd (in words)” value (H-2Kd [1]) is on record?
The value was “capable of binding to H-2Ka”.

And the “induction of CTL reactive against CMS1” value (CMS1)?
The value was “induced CTL reactive against CMS1”.

What about the “induction of CTL reactive against Meth A” value (Meth A) of the same substance?
Its value is “not Meth A”.

Which “immunogenicity (in words)” value [3] does the source give for LFCQLAKTC [132CW] here?
Its value is “lack of immunogenicity”.

Which “immunogenicity (in words)” value [3] does the source give for LFFQLAKTC [132CM] here?
Its value is “lack of immunogenicity”.

With MTEVVRtkCP [168CW] as the substance, how does the “immunogenicity (in words)” value [3] read?
The value was “lack of immunogenicity”.

For MTGVVR.R.CP [168CM], which “immunogenicity (in words)” value [3] is on record?
The value was “lack of immunogenicity”.
